Measured values published in US6461997B1, “Triazole sulfones having herbicidal activity” (Monsanto Technology LLC, priority 1999, dated 2002).

Tests used:
SORVU (shattercane) = experiment: Pre-emergence herbicidal activity, warm season; type: in vivo, Sorghum vulgare; conditions: for Pre-emergence activity (GR80) SORVU: GR80 = lowest tested rate (300, 100, 30, 10 g/ha) with 80% or greater inhibition, approx. 14 days after treating, 30/21° C.; for inhibition at 10 g/ha / inhibition at 30 g/ha / inhibition at 100 g/ha / inhibition at 300 g/ha / inhibition at 900 g/ha: Sorghum bicolor, pre-emergence application, read-out: Percent inhibition, weed SORVU
Summary of the method: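 Activity is expressed as the rate giving 80% inhibition, with 300, 100, 30 and 10 g/ha typically tested. An asterisk marks activity short of 80% at the top rate. Warm-season grasses were held at 30/21 °C; cool-season blackgrass and wild buckwheat at 18/13 °C; scoring at about 14 days.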

ABUTH (velvetleaf) = experiment: Pre-plant incorporated (PPI) herbicidal activity, warm season; type: in vivo, Abutilon theophrasti; conditions: for inhibition at 10 g/ha / inhibition at 30 g/ha / inhibition at 100 g/ha / inhibition at 300 g/ha / inhibition at 900 g/ha: Abutilon theophrasti, read-out: Percent inhibition ABUTH; for inhibition at 10 g/ha / inhibition at 30 g/ha / inhibition at 100 g/ha / inhibition at 300 g/ha / inhibition at 900 g/ha / Percent inhibition ABUTH: PPI application; for PPI activity (GR80) ABUTH: pre-plant incorporated, GR80 = lowest tested rate with 80% or greater inhibition, approx. 14 days after treating, 30/21° C.
Method: (§1) In another set of tests, the pre-plant incorporated (PPI) activity of compounds of this invention was evaluated on the same species as for the pre-emergence tests described above. In the PPI tests the following procedure, designed to simulate PPI application, was used.
(§2) A pre-prepared topsoil mixture (described above) was placed in a pot and compacted to a depth of 1.0 to 1.25 cm from the top of the pot. Seeds of each of several monocotyledonous and dicotyledonous annual plant species were placed on top of the soil. A sufficient quantity of soil to cover the seeds and level fill the pot was weighed into an open container. A known amount of the test compound was dissolved or suspended in an organic solvent and applied by spraying to this cover soil. The cover soil was thoroughly mixed to distribute the test compound throughout the cover soil, and was then applied as a cover layer over the seeds. Untreated soil was used as a cover layer for control pots. After treatment the plants were placed in a greenhouse where they received 0.64 cm of overhead irrigation. All subsequent watering consisted of a light overhead mist and/or subirrigation as needed for germination and growth. Tables 9 and 10 below relate to warm season plant species which were placed after pre-emergence treatment in a greenhouse with a 30/21° C. day/night temperature regime. Tables 11 and 12 below relates to cool season plant species placed after pre-emergence treatment in a greenhouse or growth chamber with an 18/13° C. day/night temperature regime. Only the compounds of Examples 1, 6, 8, 11, 13 and 15-20 were included in PPI tests.
(§3) Approximately 14 days after planting and treating, the plants were observed and herbicidal efficacy recorded as percent inhibition by comparison with untreated plants.

[1] = test system: GALAP (catchweed bedstraw); experiment: Pre-plant incorporated (PPI) herbicidal activity, cool season; type: in vivo, Galium aparine; conditions: for inhibition at 30 g/ha / inhibition at 100 g/ha / inhibition at 300 g/ha / inhibition at 900 g/ha: Galium aparine, read-out: Percent inhibition GALAP; for inhibition at 30 g/ha / inhibition at 100 g/ha / inhibition at 300 g/ha / inhibition at 900 g/ha / Percent inhibition GALAP: weed, PPI application; for PPI activity GR80, GALAP: pre-plant incorporated, lowest tested rate with 80% or greater inhibition, about 14 days
Method: as §1, §2, §3

ALOMY (blackgrass) = experiment: Post-emergence herbicidal activity, cool season; type: in vivo, Alopecurus myosuroides; conditions: abraded plants sprayed at 300, 100, 30 and 10 g/ha; about 14 days after treatment
Summary of the method: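 Post-emergence foliar spray; plants abraded (garnet 200w, ~850 kPa sandblast) before application. Rates 300/100/30/10 g/ha in 50:50 acetone:water, 3,100 l/ha, 511 kPa. Greenhouse 18/13° C. day/night; % inhibition vs abraded unsprayed controls at ~14 days after treatment, GR80 derived.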

soybean (GLYMX) = experiment: Selectivity test, PPI, warm season crop; type: in vivo, Glycine max; conditions: PPI application; for inhibition at 10 g/ha / inhibition at 30 g/ha / inhibition at 100 g/ha / inhibition at 300 g/ha / inhibition at 900 g/ha: Glycine max, read-out: Percent inhibition GLYMX
Method: as §2, §3
Additional pre-emergence and PPI tests were conducted by the procedures described above, on warm and cool season weed species in the presence of crop species, to assess herbicidal selectivity. Crop species included in warm season tests were corn (Zea mays, ZEAMX), rice (Oryza sativa, ORYSA) and soybean (Glycine max, GLYMX). Crop species included in cool season tests were wheat (Triticum aestivum, TRZAW), barley (Hordeunm vulgare, HORVX) and oilseed rape (Brassica napus, BRSNS).
Tables 15 and 16 relate to pre-emergence and PPI tests respectively on warm season species. Table 17 relates to pre-emergence tests on cool season species.

Compound	Pre-emergence activity (GR80) SORVU (SORVU (shattercane))	inhibition at 30 g/ha (ABUTH (velvetleaf); 30 g/ha)	inhibition at 100 g/ha (ABUTH (velvetleaf); 100 g/ha)	inhibition at 300 g/ha (ABUTH (velvetleaf); 300 g/ha)	inhibition at 900 g/ha (ABUTH (velvetleaf); 900 g/ha)	PPI activity (GR80) ABUTH (ABUTH (velvetleaf))	PPI activity GR80, GALAP [1]	Post-emergence activity GR80, ALOMY (ALOMY (blackgrass))	inhibition at 30 g/ha (soybean (GLYMX); 30 g/ha)	inhibition at 100 g/ha (soybean (GLYMX); 100 g/ha)	inhibition at 300 g/ha (soybean (GLYMX); 300 g/ha)	inhibition at 900 g/ha (soybean (GLYMX); 900 g/ha)	Percent inhibition ABUTH (ABUTH (velvetleaf); 30 g/ha)	Percent inhibition ABUTH (ABUTH (velvetleaf); 100 g/ha)	Percent inhibition ABUTH (ABUTH (velvetleaf); 300 g/ha)	Percent inhibition ABUTH (ABUTH (velvetleaf); 900 g/ha)	Percent inhibition GALAP ([1]; 30 g/ha)	Percent inhibition GALAP ([1]; 100 g/ha)	Percent inhibition GALAP ([1]; 300 g/ha)	Percent inhibition GALAP ([1]; 900 g/ha)	also measured
CCN(CC)C(=O)n1cnc(S(=O)(=O)C(F)(F)Br)n1 [Example 1, 3-(bromodifluoromethylsulfonyl)-1-(N,N-diethylcarbamoyl)-1,2,4-triazole]	* (activity observed, at least at highest rate, but <80% inhibition)	0%	0%	20%	80%	100 g/ha	100 g/ha	[empty]	0%	0%	0%	40%	–	–	–	–	–	–	–	–	inhibition at 10 g/ha (SORVU (shattercane)): 0%; inhibition at 30 g/ha (SORVU (shattercane)): 0%; inhibition at 100 g/ha (SORVU (shattercane)): 60%; inhibition at 300 g/ha (SORVU (shattercane)): 80%; inhibition at 900 g/ha (SORVU (shattercane)): 95%; inhibition at 10 g/ha (ABUTH (velvetleaf); 10 g/ha): 0%; inhibition at 30 g/ha ([1]; 30 g/ha): 70%; inhibition at 100 g/ha ([1]; 100 g/ha): 100%; inhibition at 300 g/ha ([1]; 300 g/ha): 100%; inhibition at 900 g/ha ([1]; 900 g/ha): 100%; inhibition at 10 g/ha (soybean (GLYMX); 10 g/ha): 0%
CCSC(F)(F)S(=O)(=O)c1ncn(C(=O)N(CC)CC)n1 [Example 8, 1-(N,N-diethylcarbamoyl)-3-[difluoro(ethylthio)methylsulfonyl]-1,2,4-triazole]	100 g/ha	0%	10%	20%	100%	300 g/ha	100 g/ha	[empty]	0%	10%	40%	65%	–	–	–	–	–	–	–	–	inhibition at 30 g/ha ([1]; 30 g/ha): 0%; inhibition at 100 g/ha ([1]; 100 g/ha): 100%; inhibition at 300 g/ha ([1]; 300 g/ha): 100%; inhibition at 900 g/ha ([1]; 900 g/ha): 100%
CCN(CC)C(=O)n1cnc(S(=O)(=O)C(F)(F)SC)n1 [Example 9]	300 g/ha	–	–	–	–	–	–	[empty]	–	–	–	–	0%	0%	60%	90%	100%	70%	100%	100%	Percent inhibition GLYMX (soybean (GLYMX); 30 g/ha): 0%; Percent inhibition GLYMX (soybean (GLYMX); 100 g/ha): 10%; Percent inhibition GLYMX (soybean (GLYMX); 300 g/ha): 20%; Percent inhibition GLYMX (soybean (GLYMX); 900 g/ha): 40%
CCN(CC)C(=O)n1cnc(S(=O)(=O)C(F)(F)SCC(=O)OC)n1 [Example 11]	* (activity observed, at least at highest rate, but <80% inhibition)	–	–	–	–	300 g/ha	300 g/ha	[empty]	–	–	–	–	0%	0%	20%	20%	0%	0%	20%	90%	Percent inhibition ABUTH (ABUTH (velvetleaf); 10 g/ha): 0%; Percent inhibition GALAP ([1]; 10 g/ha): 0%; Percent inhibition GLYMX (soybean (GLYMX); 10 g/ha): 0%; Percent inhibition GLYMX (soybean (GLYMX); 30 g/ha): 0%; Percent inhibition GLYMX (soybean (GLYMX); 100 g/ha): 0%; Percent inhibition GLYMX (soybean (GLYMX); 300 g/ha): 10%; Percent inhibition GLYMX (soybean (GLYMX); 900 g/ha): 30%
CCN(CC)C(=O)n1cnc(S(=O)(=O)C(F)(F)SCCOC)n1 [Example 13]	* (activity observed, at least at highest rate, but <80% inhibition)	–	–	–	–	100 g/ha	300 g/ha	[empty]	–	–	–	–	0%	0%	20%	85%	30%	0%	40%	100%	Percent inhibition ABUTH (ABUTH (velvetleaf); 10 g/ha): 0%; Percent inhibition GALAP ([1]; 10 g/ha): 0%; Percent inhibition GLYMX (soybean (GLYMX); 10 g/ha): 0%; Percent inhibition GLYMX (soybean (GLYMX); 30 g/ha): 0%; Percent inhibition GLYMX (soybean (GLYMX); 100 g/ha): 0%; Percent inhibition GLYMX (soybean (GLYMX); 300 g/ha): 30%; Percent inhibition GLYMX (soybean (GLYMX); 900 g/ha): 70%
CCN(CC)C(=O)n1cnc(S(=O)(=O)C(F)F)n1 [Example 15, 1-(N,N-diethylcarbamoyl)-3-(difluoromethylsulfonyl)-1,2,4-triazole]	* (activity observed, at least at highest rate, but <80% inhibition)	0%	20%	50%	40%	100 g/ha	30 g/ha	[empty]	0%	0%	15%	65%	–	–	–	–	–	–	–	–	inhibition at 10 g/ha (SORVU (shattercane)): 0%; inhibition at 30 g/ha (SORVU (shattercane)): 0%; inhibition at 100 g/ha (SORVU (shattercane)): 20%; inhibition at 300 g/ha (SORVU (shattercane)): 60%; inhibition at 900 g/ha (SORVU (shattercane)): 95%; inhibition at 10 g/ha (ABUTH (velvetleaf); 10 g/ha): 0%; inhibition at 10 g/ha (soybean (GLYMX); 10 g/ha): 0%
